{"source": "patent US6942970B2", "about": "“Identifying subjects suitable for topoisomerase II inhibitor treatment” (Zymed Laboratories, Inc., priority 2000, dated 2005)", "origin": "cited, not measured here", "test_system": "advanced breast cancer", "conditions": "first-line chemotherapy, advanced breast cancer patients", "data": [{"smiles": "COc1cccc2c1C(=O)c1c(O)c3c(c(O)c1C2=O)C[C@@](O)(C(=O)CO)C[C@@H]3O[C@H]1C[C@H](N)[C@@H](O)[C@H](C)O1", "note": "[epirubicin]", "values": [{"measurement": "response rate (CR+PR)", "value": 48, "unit": "%"}]}]}
